Among the test systems are UACC-62 melanoma; UO-31 renal; LOX IMVI melanoma; UACC-257 melanoma; NCI-H226 lung; ACHN renal; 786-0 renal; K-562 leukemia; IGROV1 ovarian; DU-145 prostate.
What all share (experiment): NCI-60 cell line screen, 48 h

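How tested: cells in 96-well plates exposed to compound for 48 hours at five concentrations. GI50 = concentration required for 50% inhibition of growth. Definition used: TGI = concentration required for complete inhibition of growth.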

These results are taken from PubChem BioAssay (NCI).

With `FC(F)(F)P1C2C=CC(CC2)C1(F)F` (stereo not drawn), the TGI in the assay on UACC-62 melanoma, in the assay with UO-31 renal, with LOX IMVI melanoma, with UACC-257 melanoma, in the assay with NCI-H226 lung and in the assay with ACHN renal was more than 100 µM in each case. The TGI with 786-0 renal, in the assay with K-562 leukemia and with IGROV1 ovarian was more than 100 µM throughout.
For `CC(O)c1c2c(cc3c1CC1(C3)Cc3cc4c(c(C(C)O)c3C1)CCC4)CCC2` (stereo not drawn), the TGI in the assay with UACC-62 melanoma was determined as 40.7 µM; in the assay with UO-31 renal it was 3.26 µM; with LOX IMVI melanoma, 32.8 µM; in the assay with UACC-257 melanoma, 31.7 µM; with NCI-H226 lung, 34 µM; in the assay on ACHN renal, 31.4 µM. For the same molecule, the TGI worked out at 28.9 µM in the assay on 786-0 renal, 26.8 µM in the assay with K-562 leukemia and 42.3 µM with IGROV1 ovarian.
Take `O=C(O)C(CS)NCc1c2ccccc2[n+]([O-])c2ccccc12` (stereo not drawn): the TGI in the assay on UACC-62 melanoma was more than 100 µM; with UO-31 renal it was 66.3 µM; in the assay on LOX IMVI melanoma, more than 100 µM; in the assay with UACC-257 melanoma, more than 100 µM; in the assay with NCI-H226 lung, more than 100 µM; in the assay on ACHN renal it was more than 100 µM. Moreover, the TGI in the assay on 786-0 renal, in the assay with K-562 leukemia and in the assay on IGROV1 ovarian was more than 100 µM throughout.
Regarding `ClC(Cl)(Cl)C1CCOC1n1nc2ccccc2n1` (stereo not drawn), the TGI in the assay with UACC-62 melanoma, in the assay on UACC-257 melanoma, with NCI-H226 lung, in the assay with DU-145 prostate, with 786-0 renal and in the assay on K-562 leukemia was more than 100 µM in each case. The same molecule came in with a TGI in the assay on IGROV1 ovarian of more than 100 µM.
Take `N=C(/C=C/c1ccc(-c2cn3cc(/C=C/C(=N)N4CCCC4)ccc3n2)cc1)N1CCCC1`: the TGI in the assay with UACC-62 melanoma, in the assay on UO-31 renal, in the assay on UACC-257 melanoma, in the assay with NCI-H226 lung, in the assay with ACHN renal and in the assay with DU-145 prostate was more than 100 µM in each case. Further, the TGI with 786-0 renal, with K-562 leukemia and with IGROV1 ovarian was more than 100 µM each time.
Consider `Cc1c2c(c(C)n1-c1ccccc1)C(=O)N(CCSC(=N)N)C2=O`, for which the TGI in the assay with UACC-62 melanoma, in the assay on UO-31 renal, with UACC-257 melanoma, in the assay with NCI-H226 lung, with ACHN renal and in the assay with DU-145 prostate was more than 100 µM throughout. For the same molecule, the TGI in the assay on 786-0 renal, in the assay with K-562 leukemia and with IGROV1 ovarian was more than 100 µM in each case.
As to `COCCOCN(C(=O)C1=CCC2(CC1)OCCO2)c1ccccc1I`, the TGI with UACC-62 melanoma, in the assay on UO-31 renal, in the assay on LOX IMVI melanoma, in the assay on UACC-257 melanoma, with NCI-H226 lung and with ACHN renal was more than 50 µM each time. Also, the TGI with DU-145 prostate and in the assay with 786-0 renal was more than 50 µM throughout.
For `Cc1cc2nc(N3C(=O)/C(=C/c4cccc([N+](=O)[O-])c4)N=C3c3ccccc3)sc2cc1C`, the TGI with UACC-62 melanoma was more than 100 µM; in the assay with UO-31 renal, more than 100 µM; in the assay with LOX IMVI melanoma, 55.8 µM; in the assay on UACC-257 melanoma it was more than 100 µM; with ACHN renal it was more than 100 µM; in the assay with DU-145 prostate, more than 100 µM. Also, the TGI in the assay on 786-0 renal, with K-562 leukemia and in the assay on IGROV1 ovarian was more than 100 µM in each case.
Regarding `O=C(O)CCC(NC(=O)c1ccc(Nc2nc3ccccc3nc2C(=O)O)cc1)C(=O)O` (stereo not drawn), the TGI in the assay with UACC-62 melanoma, in the assay on UO-31 renal, in the assay on UACC-257 melanoma, in the assay with ACHN renal, with DU-145 prostate and in the assay with 786-0 renal was more than 100 µM each time. The TGI in the assay on K-562 leukemia and in the assay with IGROV1 ovarian was more than 100 µM in each case.
With `O=[N+]([O-])c1ccc(Cl)cc1-n1nc(-c2ccccc2)cc1-c1ccccc1`, the TGI in the assay with UACC-62 melanoma, with UO-31 renal, in the assay with UACC-257 melanoma, in the assay with NCI-H226 lung, with ACHN renal and with DU-145 prostate was more than 100 µM throughout. The TGI in the assay with 786-0 renal, with K-562 leukemia and in the assay on IGROV1 ovarian was more than 100 µM each time.
Consider `CC[C@@H]1CN2CCC1C[C@@H]2C(O)c1ccnc2ccc(OCCN3CCN(CCOc4ccc5nccc(C(O)[C@@H]6C[C@@H]7CCN6C[C@@H]7CC)c5c4)CC3)cc12` (stereo partly drawn), for which the TGI with UACC-62 melanoma turned out to be 30.5 µM; with LOX IMVI melanoma, 38.5 µM; in the assay on UACC-257 melanoma it was 32.1 µM; with ACHN renal, 28.8 µM; in the assay with DU-145 prostate, 31.8 µM; in the assay with 786-0 renal, 30.2 µM. Also, the results for the TGI with K-562 leukemia and in the assay on IGROV1 ovarian were 6.2 µM and 36.7 µM, respectively.
For the molecule `Cc1c(C(=O)CSc2nc3ccc([N+](=O)[O-])cc3[nH]2)c(=O)n(-c2ccccc2)n1C`, the TGI in the assay on UO-31 renal, in the assay on LOX IMVI melanoma, in the assay with UACC-257 melanoma, in the assay on NCI-H226 lung, in the assay with ACHN renal and with 786-0 renal was more than 100 µM in each case. The TGI in the assay with IGROV1 ovarian was more than 100 µM.
On to `CC(=O)O[C@H]1C(=O)[C@@]2(C)C([C@H](OC(=O)c3ccccc3)[C@]3(O)C[C@H](OC(=O)[C@H](O)[C@H](NC(=O)c4ccccc4)c4ccc(Cl)cc4)C(C)=C1C3(C)C)C1(OC(C)=O)CO[C@@H]1C[C@@H]2O` (stereo partly drawn), for which the TGI with UACC-62 melanoma was 0.00418 µM; with UO-31 renal it was 11 µM; with LOX IMVI melanoma, 55.9 µM; in the assay with NCI-H226 lung it was 0.0497 µM; in the assay on ACHN renal it was more than 100 µM; in the assay on 786-0 renal, 28.1 µM. In addition, the TGI in the assay on K-562 leukemia is 10.9 µM. Also, the figures for the GI50 in the assay on UO-31 renal and in the assay with ACHN renal were 1.97 µM and 1.66 µM, respectively.
Consider `CCN(CC)CCNC(=O)c1ccc([N+](=O)[O-])cc1OC`, for which the TGI in the assay with UACC-62 melanoma, in the assay with UO-31 renal, in the assay on LOX IMVI melanoma, in the assay on UACC-257 melanoma, in the assay with NCI-H226 lung and in the assay on ACHN renal was more than 100 µM throughout. The TGI with 786-0 renal, with K-562 leukemia and in the assay on IGROV1 ovarian was more than 100 µM each time.
Take `COc1cc([C@@H]2c3cc4c(cc3[C@H](OC3OC5COC(C(C)C)OC5C(O)C3O)C3COC(=O)[C@@H]32)OCO4)cc(OC)c1O` (stereo partly drawn): the TGI came out at 24.7 µM in the assay with UACC-62 melanoma; 22.3 µM in the assay with UO-31 renal; 30 µM with LOX IMVI melanoma; 22.3 µM in the assay with UACC-257 melanoma; 24 µM in the assay on NCI-H226 lung; 15.6 µM in the assay on ACHN renal. The TGI is 22.1 µM in the assay on 786-0 renal, more than 100 µM in the assay on K-562 leukemia and 21.8 µM in the assay with IGROV1 ovarian.
